# Laboratory results taken from ChEMBL document CHEMBL1131527, “Estradiol-mimetic probes. Preparation of 17 alpha-(6-aminohexynyl)estradiol biotin, fluorescein and acridinium conjugates” (Bioorg Med Chem Lett, 1998).
# Assay: Equilibrium dissociation constant of the compound
# Format: ADME
row,Kd [nM],SMILES
1,97.3,C[C@]12CC[C@@H]3c4ccc(O)cc4CC[C@H]3[C@@H]1CC[C@@]2(O)C#CCCCCNC(=O)c1ccc2c(c1)C(=O)OC21c2ccc(O)cc2Oc2cc(O)ccc21
2,141,C[C@]12CC[C@@H]3c4ccc(O)cc4CC[C@H]3[C@@H]1CC[C@@]2(O)C#CCCCCNC(=O)CCCCC1SC[C@@H]2NC(=O)N[C@H]12 (stereo partly drawn)
3,198,Cc1ccc(S(=O)(=O)N(CCCC(=O)NCCCCC#C[C@]2(O)CC[C@H]3[C@@H]4CCc5cc(O)ccc5[C@H]4CC[C@@]32C)C(=O)c2c3ccccc3[n+](CCCS(=O)(=O)[O-])c3ccccc23)cc1
